In PubChem BioAssay AID1963437 (Molecular Pharmacology Branch, DTP, NCI, 2024):

Tested on: OVCAR-8 complex spheroid, growth inhibition
Experiment: Anticancer human tumor OVCAR-8 cell line growth inhibition [Asc];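 also: spheroids exposed to agents for 7 days before readout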;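 as to viability, T/C: percent viability relative to DMSO vehicle wells taken as 100%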
Settings: for IC50: curve of first compound; for viability, T/C: stronger effect = lower value
Procedure, shortened: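 Tumor cells were grown as complex spheroids with human endothelial cells (HUVEC) and human mesenchymal stem cells as stroma. Agents were tested alone and in combination, in half-log steps down from the clinical Cmax, or from 10 microM where Cmax was unknown.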

For Cc1nc(N2CCC3(CC2)COC(C)C3N)c(CO)nc1Sc1ccnc(N)c1Cl (stereo unspecified) + CCN1C(C(=O)NC23CCC(C(=O)O)(CC2)CC3)C(c2cccc(Cl)c2F)C2(C(=O)Nc3cc(Cl)ccc32)C12CCCCC2, the IC50 (second compound 0.00949 µM) was greater than 3 µM, the IC50 (second compound 0.03 µM) was greater than 3 µM and the IC50 (second compound 0.0949 µM) was greater than 3 µM. It also gave an IC50 (second compound 0.3 µM) greater than 3 µM, an IC50 (second compound 0.949 µM) greater than 3 µM and an IC50 (second compound 3 µM) greater than 3 µM. The viability, T/C (second compound 0.00949 µM, first compound 0.00949 µM) was 101%, the viability, T/C (second compound 0.00949 µM, first compound 0.03 µM) was 122% and the viability, T/C (second compound 0.00949 µM, first compound 0.0949 µM) was 152%. For the same molecule, the viability, T/C (second compound 0.00949 µM, first compound 0.3 µM) was 216%, the viability, T/C (second compound 0.00949 µM, first compound 0.949 µM) was 263% and the viability, T/C (second compound 0.00949 µM, first compound 3 µM) was 209%. For the same molecule, the viability, T/C (second compound 0.03 µM, first compound 0.00949 µM) was 108%, the viability, T/C (second compound 0.03 µM, first compound 0.03 µM) was 139% and the viability, T/C (second compound 0.03 µM, first compound 0.0949 µM) was 142%. The viability, T/C (second compound 0.03 µM, first compound 0.3 µM) was 204%, the viability, T/C (second compound 0.03 µM, first compound 0.949 µM) was 241% and the viability, T/C (second compound 0.03 µM, first compound 3 µM) was 221%. It also gave a viability, T/C (second compound 0.0949 µM, first compound 0.00949 µM) of 103%, a viability, T/C (second compound 0.0949 µM, first compound 0.03 µM) of 117% and a viability, T/C (second compound 0.0949 µM, first compound 0.0949 µM) of 154%. For the same molecule, the viability, T/C (second compound 0.0949 µM, first compound 0.3 µM) was 200%, the viability, T/C (second compound 0.0949 µM, first compound 0.949 µM) was 244% and the viability, T/C (second compound 0.0949 µM, first compound 3 µM) was 228%. For the same molecule, the viability, T/C (second compound 0.3 µM, first compound 0.00949 µM) was 115%, the viability, T/C (second compound 0.3 µM, first compound 0.03 µM) was 126% and the viability, T/C (second compound 0.3 µM, first compound 0.0949 µM) was 153%. For the same molecule, the viability, T/C (second compound 0.3 µM, first compound 0.3 µM) was 221%, the viability, T/C (second compound 0.3 µM, first compound 0.949 µM) was 251% and the viability, T/C (second compound 0.3 µM, first compound 3 µM) was 232%. For the same molecule, the viability, T/C (second compound 0.949 µM, first compound 0.00949 µM) was 106%, the viability, T/C (second compound 0.949 µM, first compound 0.03 µM) was 101% and the viability, T/C (second compound 0.949 µM, first compound 0.0949 µM) was 175%. It also gave a viability, T/C (second compound 0.949 µM, first compound 0.3 µM) of 229%, a viability, T/C (second compound 0.949 µM, first compound 0.949 µM) of 223% and a viability, T/C (second compound 0.949 µM, first compound 3 µM) of 214%. The viability, T/C (second compound 3 µM, first compound 0.00949 µM) was 125%, the viability, T/C (second compound 3 µM, first compound 0.03 µM) was 140% and the viability, T/C (second compound 3 µM, first compound 0.0949 µM) was 171%. For the same molecule, the viability, T/C (second compound 3 µM, first compound 0.3 µM) was 214%, the viability, T/C (second compound 3 µM, first compound 0.949 µM) was 192% and the viability, T/C (second compound 3 µM, first compound 3 µM) was 169%.

Molecule COc1c(OCCCN2CCOCC2)ccc2c3n(c(=NC(=O)c4cnc(N)nc4)nc12)CCN3 + Cc1c(S(C)(=O)=O)c(-c2cc(F)cc(N3CCN(c4ccc(NS(=O)(=O)c5ccc(NC(CCN6CCC(C(=O)OCCCP(=O)(O)O)CC6)CSc6ccccc6)c(S(=O)(=O)C(F)(F)F)c5)cc4)CC3)c2)c(-c2ccc(Cl)cc2)n1C(C)C has an IC50 (second compound 0.0316 µM) greater than 1 µM, an IC50 (second compound 0.1 µM) greater than 1 µM and an IC50 (second compound 0.316 µM) greater than 1 µM. It also gave an IC50 (second compound 1 µM) greater than 1 µM, an IC50 (second compound 3.16 µM) greater than 1 µM and an IC50 (second compound 10 µM) greater than 1 µM. It also gave a viability, T/C (second compound 0.0316 µM, first compound 0.00316 µM) of 114%, a viability, T/C (second compound 0.0316 µM, first compound 0.01 µM) of 104% and a viability, T/C (second compound 0.0316 µM, first compound 0.0316 µM) of 128%. It also gave a viability, T/C (second compound 0.0316 µM, first compound 0.1 µM) of 150%, a viability, T/C (second compound 0.0316 µM, first compound 0.316 µM) of 149% and a viability, T/C (second compound 0.0316 µM, first compound 1 µM) of 82.2%. The viability, T/C (second compound 0.1 µM, first compound 0.00316 µM) was 100%, the viability, T/C (second compound 0.1 µM, first compound 0.01 µM) was 107% and the viability, T/C (second compound 0.1 µM, first compound 0.0316 µM) was 142%. It also gave a viability, T/C (second compound 0.1 µM, first compound 0.1 µM) of 161%, a viability, T/C (second compound 0.1 µM, first compound 0.316 µM) of 145% and a viability, T/C (second compound 0.1 µM, first compound 1 µM) of 85.9%. It also gave a viability, T/C (second compound 0.316 µM, first compound 0.00316 µM) of 91.6%, a viability, T/C (second compound 0.316 µM, first compound 0.01 µM) of 121% and a viability, T/C (second compound 0.316 µM, first compound 0.0316 µM) of 154%. It also gave a viability, T/C (second compound 0.316 µM, first compound 0.1 µM) of 146%, a viability, T/C (second compound 0.316 µM, first compound 0.316 µM) of 140% and a viability, T/C (second compound 0.316 µM, first compound 1 µM) of 85.8%. It also gave a viability, T/C (second compound 1 µM, first compound 0.00316 µM) of 114%, a viability, T/C (second compound 1 µM, first compound 0.01 µM) of 119% and a viability, T/C (second compound 1 µM, first compound 0.0316 µM) of 167%. It also gave a viability, T/C (second compound 1 µM, first compound 0.1 µM) of 181%, a viability, T/C (second compound 1 µM, first compound 0.316 µM) of 142% and a viability, T/C (second compound 1 µM, first compound 1 µM) of 82.8%. It also gave a viability, T/C (second compound 3.16 µM, first compound 0.00316 µM) of 144%, a viability, T/C (second compound 3.16 µM, first compound 0.01 µM) of 98.8% and a viability, T/C (second compound 3.16 µM, first compound 0.0316 µM) of 136%. It also gave a viability, T/C (second compound 3.16 µM, first compound 0.1 µM) of 170%, a viability, T/C (second compound 3.16 µM, first compound 0.316 µM) of 135% and a viability, T/C (second compound 3.16 µM, first compound 1 µM) of 64.2%. It also gave a viability, T/C (second compound 10 µM, first compound 0.00316 µM) of 131%, a viability, T/C (second compound 10 µM, first compound 0.01 µM) of 141% and a viability, T/C (second compound 10 µM, first compound 0.0316 µM) of 146%. It also gave a viability, T/C (second compound 10 µM, first compound 0.1 µM) of 189%, a viability, T/C (second compound 10 µM, first compound 0.316 µM) of 143% and a viability, T/C (second compound 10 µM, first compound 1 µM) of 76.2%.

Molecule O=C(c1cc(Cc2n[nH]c(=O)c3ccccc23)ccc1F)N1CCN(C(=O)C2CC2)CC1 + CCN1C(C(=O)NC23CCC(C(=O)O)(CC2)CC3)C(c2cccc(Cl)c2F)C2(C(=O)Nc3cc(Cl)ccc32)C12CCCCC2 has an IC50 (second compound 0.00949 µM) greater than 10 µM, an IC50 (second compound 0.03 µM) greater than 10 µM and an IC50 (second compound 0.0949 µM) greater than 10 µM. It also gave an IC50 (second compound 0.3 µM) greater than 10 µM, an IC50 (second compound 0.949 µM) greater than 10 µM and an IC50 (second compound 3 µM) greater than 10 µM. The viability, T/C (second compound 0.00949 µM, first compound 0.0316 µM) was 99.8%, the viability, T/C (second compound 0.00949 µM, first compound 0.1 µM) was 86% and the viability, T/C (second compound 0.00949 µM, first compound 0.316 µM) was 85.7%. It also gave a viability, T/C (second compound 0.00949 µM, first compound 1 µM) of 98.2%, a viability, T/C (second compound 0.00949 µM, first compound 3.16 µM) of 97.8% and a viability, T/C (second compound 0.00949 µM, first compound 10 µM) of 102%. The viability, T/C (second compound 0.03 µM, first compound 0.0316 µM) was 93.2%, the viability, T/C (second compound 0.03 µM, first compound 0.1 µM) was 94% and the viability, T/C (second compound 0.03 µM, first compound 0.316 µM) was 87.5%. For the same molecule, the viability, T/C (second compound 0.03 µM, first compound 1 µM) was 100%, the viability, T/C (second compound 0.03 µM, first compound 3.16 µM) was 119% and the viability, T/C (second compound 0.03 µM, first compound 10 µM) was 102%. The viability, T/C (second compound 0.0949 µM, first compound 0.0316 µM) was 101%, the viability, T/C (second compound 0.0949 µM, first compound 0.1 µM) was 91.7% and the viability, T/C (second compound 0.0949 µM, first compound 0.316 µM) was 94.2%. It also gave a viability, T/C (second compound 0.0949 µM, first compound 1 µM) of 87.6%, a viability, T/C (second compound 0.0949 µM, first compound 3.16 µM) of 120% and a viability, T/C (second compound 0.0949 µM, first compound 10 µM) of 115%. For the same molecule, the viability, T/C (second compound 0.3 µM, first compound 0.0316 µM) was 85.2%, the viability, T/C (second compound 0.3 µM, first compound 0.1 µM) was 85.9% and the viability, T/C (second compound 0.3 µM, first compound 0.316 µM) was 93.3%. For the same molecule, the viability, T/C (second compound 0.3 µM, first compound 1 µM) was 91.4%, the viability, T/C (second compound 0.3 µM, first compound 3.16 µM) was 103% and the viability, T/C (second compound 0.3 µM, first compound 10 µM) was 120%. It also gave a viability, T/C (second compound 0.949 µM, first compound 0.0316 µM) of 99.6%, a viability, T/C (second compound 0.949 µM, first compound 0.1 µM) of 108% and a viability, T/C (second compound 0.949 µM, first compound 0.316 µM) of 105%. For the same molecule, the viability, T/C (second compound 0.949 µM, first compound 1 µM) was 95.5%, the viability, T/C (second compound 0.949 µM, first compound 3.16 µM) was 96.3% and the viability, T/C (second compound 0.949 µM, first compound 10 µM) was 114%. For the same molecule, the viability, T/C (second compound 3 µM, first compound 0.0316 µM) was 115%, the viability, T/C (second compound 3 µM, first compound 0.1 µM) was 104% and the viability, T/C (second compound 3 µM, first compound 0.316 µM) was 114%. It also gave a viability, T/C (second compound 3 µM, first compound 1 µM) of 103%, a viability, T/C (second compound 3 µM, first compound 3.16 µM) of 125% and a viability, T/C (second compound 3 µM, first compound 10 µM) of 107%.
